Measured values reported in article PMC9490829, “Elucidation of Structure–Activity Relationships in Indolobenzazepine-Derived Ligands and Their Copper(II) Complexes: the Role of Key Structural Components and Insight into the Mechanism of Action” (Inorganic Chemistry, 2022).
Where two headings read alike, the source gives them in different places.

Legend:
[1] = Solution stability (UV-vis, ESI-MS, 1H NMR); assay type: physicochemical; settings: aqueous solution containing 1% DMSO, 72 h
Method: First, UV–vis kinetic studies were performed with the ligands HL^2 and HL^4 (Figure S30) and the copper(II) complexes 1–4 in aqueous solutions containing 1% DMSO (Figures S31 and 32). Additionally, the stability of the copper(II) complex 4 was also measured in phosphate-buffered saline (PBS) (pH ∼ 7.4) containing 3% DMSO over 24 h. […] Additional peaks which could be assigned to the dissociated ligand or any its fragments due to a hypothetical ligand degradation have not been registered. In addition to UV–vis data, the stability and purity of complex 4 were tested by analytical HPLC-HR ESI MS using methanol or acetonitrile with 0.1% formic acid as the eluent over 10 min. A single peak at around 1 min corresponding to [Cu^II(L^4)]^+ (found m/z = 506.9939 (Figure S23), calcd m/z for C23H17BrCuN5 507.0063) was registered in agreement with other experiments. In addition, the stability of HL^4 in 1:1 DMSO-d6/D2O at 25 °C was monitored by ^1H NMR spectroscopy. […] In addition, solution stability of the lead complex 4 was studied in ethanol-cell culture medium (1:1 v/v) by monitoring the electronic absorption spectra in the visible region within a time period of 8 h (Figure S34, Supporting Information).

HEK293 cells [2] = assay: MTT assay, noncancerous HEK293; assay type: cell-based, human; settings: exposure 72 h, read-out: 50% inhibitory concentration (IC50) HEK293
Method: (§1) The in vitro antiproliferative activity of novel organic compounds HL^1–HL^4 and corresponding copper(II) complexes 1–4 was tested in the breast cancer cell line MDA-MB-231, hepatocellular carcinoma cell line LM3, and human embryonic kidney cell line HEK293 and then compared to those of the previously reported paullones HL^5–HL^7 and copper(II) complexes 5–7,[39],[44] as well as latonduines HL^8–HL^11 and copper(II) complexes 8–11.[34] […] The in vitro anticancer activity was determined by the colorimetric MTT assay with an exposure time of 72 h.
(§2) Human breast adenocarcinoma MDA-MB-231 and human embryonic kidney HEK293 cells were obtained from ATCC. Hepatocellular carcinoma LM3 cells were a kind gift of Prof. Kan Man Hui (Duke-NUS Medical School). All cells were cultured in DMEM medium containing 10% FBS in tissue culture 75 cm^2 flasks (BDBiosciences, Singapore) at 37 °C in a humidified atmosphere of 95% air and 5% CO2. All stock solutions were prepared in DMSO. The amount of actual Cu concentration in stock solutions was verified by ICP-OES.
(§3) The cytotoxicity of the compounds was determined by the colorimetric MTT assay. The cells were harvested from culture flasks by trypsinization and seeded into CELLSTAR 96-well microculture plates at the seeding density of 6000 cells per well (6 × 10^4 cells/mL). […] Optical densities were measured at 570 nm using the BioTekH1 Synergy microplate reader. […]

LM3 cells [3] = assay: MTT antiproliferative assay, LM3; assay type: cell-based; settings: exposure 72 h, read-out: 50% inhibitory concentration (IC50) LM3
Method: as §1, §2, §3

MDA-MB-231 cells [4] = assay: MTT antiproliferative assay, MDA-MB-231; assay type: cell-based, human; settings: exposure 72 h, read-out: 50% inhibitory concentration (IC50) MDA-MB-231
Method: as §1, §2, §3

HEK293 cells [5] = system: HEK293 cells; design: method as in doi:10.1021/acs.organomet.9b00229; settings: MTT assay, exposure 72 h; read-out: 50% inhibitory concentration (IC50) HEK293; cited from earlier work
MDA-MB-231 cells [6] = system: MDA-MB-231 cells; design: method as in PMID 34995063; settings: MTT assay, exposure 72 h; read-out: 50% inhibitory concentration (IC50) MDA-MB-231; cited from earlier work
LM3 cells [7] = system: LM3 cells; design: method as in PMID 34995063; settings: MTT assay, exposure 72 h; read-out: 50% inhibitory concentration (IC50) LM3; cited from earlier work

IC50 (MDA-MB-231 cells [4]) [µM]	SMILES	stability by UV–vis absorption spectra [1]	IC50 (HEK293 cells [2]) [µM]	IC50 (LM3 cells [3]) [µM]	IC50 (HEK293 cells [5]) [µM]	IC50 (MDA-MB-231 cells [6]) [µM]	IC50 (LM3 cells [7]) [µM]
1.5 ± 0.1	C(=N\N=C1/NCc2ccccc2-c2[nH]c3ccccc3c21)/c1ccccn1 [HL^1]	no changes in the UV–vis absorption spectra over 72 h	2 ± 0.1	1.4 ± 0.2	–	–	–
–	N.N.[Cl][Pt][Cl] [cisplatin]	–	–	–	3.4 ± 1.1	21 ± 5	10 ± 3
